# Assay results taken from US20140193510A1, “Polymer-Agent Conjugates, Particles, Compositions, and Related Methods of Use” (CERULEAN PHARMA INC., priority 2009, published 2014).
# Where “and” joins values, the source holds several entries; their conditions need not be identical. Equal entries are not always repeated. Entries after “also recorded” stand apart in the source; their conditions may differ. Where two headings read alike, the source gives them in different places.
# Columns and labels:
# [1] = Body weight changes in A2780 tumor-bearing mice (Example 42); format: in vivo, CD-1 nude mice; conditions: for % of initial body weight: Day 36
# Description: This formulation was made within 30 minutes of administration to mice.
# The treatments were administered 2 times, on Day 8 and Day 15 (weekly×2 injections) for n=8 mice per group. […] On Day 50, the study was ended for all remaining mice. When removed from the study, mice were euthanized by CO2 inhalation.
# [2] = Body weight and ataxia in MDA-MB-435 tumor-bearing mice (Example 46); conditions: for ataxia: weekly x two injections
# Description: The treatments were administered IV into the tail vein at the dose volumes stated above, beginning on post-implantation Day 21, when the mean tumor volume was 150 mm^3 or, for one group, on Day 37, when the mean tumor volume for that group was 433 mm^3.
# [3] = Tolerability (body weight) in B16.F10 murine melanoma model (Example 43); format: in vivo, C57BL/6 mice
# [4] = Body weight and ataxia in SK-OV-3 tumor-bearing mice (Example 45); format: in vivo, CD-1 nude mice; conditions: weekly x two injections
# [5] = Tolerability in normal non-tumor-bearing mice (body weight, CBC, serum chemistry, ataxia, sciatic nerve; Example 47); format: in vivo, C57BL/6 mice; conditions: for ataxia: n=5
# Description: Treatments were administered intravenously on a q7dx2 schedule, i.e., two treatments seven days apart (the first treatment was on Day one). The study ended on Day 14, six days after the 2nd treatment. Blood was collected for complete blood count (CBC) and serum chemistry. Leg muscles were collected so that nerve degeneration could be assessed from the sciatic nerve.
# [6] = Body weight in HCT-116 tumor bearing mice (Example 44); format: in vivo, CD-1 nude mice; conditions: 30 mg/kg IV
# Description: The treatments were administered IV into the tail vein at the respective dose volumes (refer to previous paragraph), beginning on post-implantation Day 13, when the mean tumor volume was 131 mm^3.
# [7] = mouse, in vivo
# Description: The stock solution was diluted further with PBS to 0.6, 1.5, 3, 4.5 and 6 mg/mL (for a corresponding dose of 6, 15, 30, 45 and 60 mg/kg) so that all the groups received the same amount of ethanol, polysorbate 80, water and PBS. […] 5) PEGylated O-acetyl-5050-PLGA nanoparticle vehicle at the highest concentration of 6 mg/mL.
# The treatments were administered IV into the tail vein at a dose volume of 10 mL/kg, beginning on post-implantation Day 5, when the mean tumor volume was 55 mm^3. The treatments were administered 4 times, on Days 5, 8, 12 and 15 (biweekly×4 injections). On Day 17 post-tumor implantation, mice were euthanized by CO2 inhalation according to the procedure guideline. Blood was collected by cardiac puncture and put into ethylenediaminetetraacetic acid (EDTA) or serum separation blood collection tubes. Whole blood was analyzed on the day of collection for CBC analyses. After the blood clotted and was centrifuged, serum was frozen immediately on dry ice for serum chemistry analyses.
# Tolerability was determined by changes in body weight, expressed as a percent of the initial body weight on post-implantation Day 5. […] Other indices of toxicity, complete blood count (CBC) and serum chemistry were determined from blood collected from animals that were euthanized on Day 17 by CO2 inhalation, according to the procedure guideline.
# B16.F10 cells [8] = experiment: Efficacy in B16.F10 murine melanoma model (Example 43); format: in vivo, C57BL/6 mice; conditions: q4dq3dx3 (three injections over 2 weeks), 15 mg/kg IV
# Description: Refer to table for detailed description of formulations.
# Tumor volume was calculated with the following equation: (width×width×length)/2 mm^3.
# MDA-MB-435 cells = experiment: In vivo efficacy, MDA-MB-435 melanoma human xenograft model (Example 46); set-up: species or system CD-1 nude mice; conditions: as of Day 76, weekly x two injections
# Description: MDA-MB-435 cells were grown in culture to confluency in RPMI medium containing 10% FBS and 1% penicillin/streptomycin and then resuspended in RPMI (passage 4) for implantation into mice. A volume of 0.1 mL containing 4.0×10^6 cells MDA-MB-435 cells were implanted into the mammary gland of female CD-1 nude mice on Day 1.
# B16.F10 cells [9] = experiment: CellTiter-Glo Luminescent Cell Viability Assay (cytotoxicity of nanoparticles); format: cell-based; conditions: 24, 48 and 72 hours of incubation
# Description: B16.F10 cells, grown to 85-90% confluency in 150 cm^2 flasks (passage <30), were resuspended in media (MEM-alpha, 10% HI-FBS, 1× antibiotic-antimycotic) and added to 96-well opaque-clear bottom plates at a concentration of 1500 cells/well in 200 μL/well. The cells were incubated at 37° C. with 5% CO2 for 24 hours. The following day, serial dilutions of 2× concentrated particles and 2× concentrated free drug were made in 12-well reservoirs with media to specified concentrations. The media in the plates was replaced with 100 μL of fresh media and 100 μL of the corresponding serially diluted drug. Three sets of plates were prepared with duplicate treatments. Following 24, 48 and 72 hours of incubation at 37° C. with 5% CO2, the media in the plates was replaced with 100 μL of fresh media and 100 μL of CTG solution, and then incubated for 5 minutes on a plate shaker at room temperature set to 450 rpm and allowed to rest for 15 minutes. Viable cells were measured by luminescence using a microtiter plate reader. The data was plotted as viability vs. concentration and standardized to untreated cells.
molecule,measurement,setting,value
"CC(=O)O[C@@]12CO[C@@H]1C[C@H](O)[C@@]1(C)C(=O)[C@H](O)C3=C(C)[C@@H](OC(=O)[C@H](O)[C@@H](NC(=O)OC(C)(C)C)c4ccccc4)C[C@@](O)([C@@H](OC(=O)c4ccccc4)[C@H]21)C3(C)C [Free docetaxel, docetaxel]",Maximum body weight loss,[1]; 15 mg/kg IV weekly x 2,7%
same,% of initial body weight,[1]; 15 mg/kg,113±11%
same,Maximum body weight loss,[1]; 30 mg/kg IV weekly x 2,10%
same,% of initial body weight,[1]; 30 mg/kg,105±9%
same,ataxia,[2]; 30 mg/kg IV,did not cause ataxia
same,body weight loss,"[2]; 60 mg/kg IV, Days 21 and 28 (mean tumor size 150 mm^3 at start)",greater than 20%
same,ataxia,"[2]; 60 mg/kg IV, listed as docetaxel",developed ataxia
same,ataxia,"[2]; 60 mg/kg IV, listed as free docetaxel",Ataxia was observed four days after the second treatment
same,Maximum body weight loss,"[3]; q3dq4dx3, 15 mg/kg IV, listed as Docetaxel",11% and 12%
same,Maximum body weight loss,"[3]; q4dq3dx3, 15 mg/kg IV",11%
same,Maximum body weight loss,"[3]; q7dx3, 30 mg/kg IV",11%
same,Maximum body weight loss,"[3]; q14dx2, 60 mg/kg IV, listed as Docetaxel",0%
same,Maximum body weight loss,"[3]; q14dx2, 60 mg/kg IV, listed as docetaxel",did not show any body weight loss
same,Maximum body weight loss,"[3]; three times, once every week, 15 mg/kg (as worded)",11%
same,Maximum body weight loss,[4]; 30 mg/kg IV,13%
same,ataxia,[4]; 30 mg/kg IV,did not cause ataxia
same,body weight loss,[4]; 60 mg/kg IV,greater than 20%
same,body weight more than the initial on Day 14,[5]; 30 mg/kg IV q7dx2,3%
same,ataxia,[5]; 30 mg/kg IV q7dx2,0%
same,body weight more than the initial on Day 14,[5]; 45 mg/kg IV q7dx2,2%
same,ataxia,[5]; 45 mg/kg IV q7dx2,20%
same,Neutrophil mean,"[5]; 60 mg/kg IV q7dx2, Day 14",470 cells/μL
same,"weight lost after the second treatment, by the end of the study","[5]; 60 mg/kg IV q7dx2, Day 14",19%
same,ataxia,[5]; 60 mg/kg IV q7dx2,100%
same,effect on serum chemistry parameters,"[5]; q7dx2, Day 14",did not affect any serum chemistry parameter at doses up to 60 mg/kg
same,mice observed to develop ataxia,"[5]; q7dx2, n=5/group, dose in the value",no mice in the 30 mg/kg group were seen to develop ataxia or any overt signs of nerve damage; also recorded: One mouse in the 45 mg/kg group was observed to develop ataxia on Day 14; also recorded: Five out of five mice in the 60 mg/kg group was observed to develop ataxia
same,Maximum body weight loss,[6],14%
same,effect on serum chemistry parameters,[7],did not affect any serum chemistry parameter at doses up to 30 mg/kg
same,Tumor growth inhibition (TGI),B16.F10 cells [8],90%
same,TGI compared with PEGylated nanoparticles,MDA-MB-435 cells; listed as docetaxel,docetaxel at a dose of 30 mg/kg is equivalent to PEGylated nanoparticles at a dose of 60 mg/kg
same,TGI compared with PEGylated nanoparticles,MDA-MB-435 cells; listed as free docetaxel,"the treatment at a dose of 15 mg/kg resulted in the same TGI for free docetaxel and PEGylated nanoparticles; also recorded: At a dose of 30 mg/kg, the TGI for free docetaxel was greater than that for PEGylated nanoparticles; also recorded: At a dose of 60 mg/kg, free docetaxel was equivalent to PEGylated nanoparticles until the free drug group was removed from the study"
docetaxel-5050 PLGA-O-acetyl,growth of B16.F10 cells (viability),B16.F10 cells [9],inhibited the growth of B16.F10 cells in a dose and time dependent manner
doxorubicin 5050 PLGA amide,growth of B16.F10 cells (viability),B16.F10 cells [9],inhibited the growth of B16.F10 cells in a dose and time dependent manner
paclitaxel-5050 PLGA-O-acetyl,growth of B16.F10 cells (viability),B16.F10 cells [9],inhibited the growth of B16.F10 cells in a dose and time dependent manner
